Laboratory results from patent publication US6753345B2, “7-hexanolytaxol and methods for preparing the same” (Hauser, Inc., priority 1998, dated 2004).

How the values were obtained:
[1] = system: CCRF-CEM cells; experiment: G2/M arrest; format: cell-based; details: minimum concentration that results in 60% of CCRF-CEM cells to arrest in G2-M
[2] = system: HL-60(TB); details: HL-60(TB) (Leukemia); PG=0; 48 hour incubation
[3] = system: HL-60(TB); experiment: cells; details: Homo sapiens, HL-60, 48 h
[4] = system: LOX-IMVI; experiment: cells; details: Homo sapiens, 48 h, read-out: Log10 LC50 (converted)
[5] = system: IGR-OV1; experiment: SRB cytotoxicity screening assay (Ovarian)
[6] = system: OVCAR-4; experiment: SRB cytotoxicity screening assay (Ovarian)
[7] = system: OVCAR-5; experiment: SRB cytotoxicity screening assay (Ovarian)
[8] = system: OVCAR-6; experiment: SRB cytotoxicity screening assay (Ovarian)
[9] = system: K-562; experiment: SRB cytotoxicity screening assay (Leukemia)
[10] = system: SR; experiment: SRB cytotoxicity screening assay (Leukemia); details: Homo sapiens, SR, 48 h
[11] = system: M14; experiment: SRB cytotoxicity screening assay (Melanoma)
[12] = system: SK-MEL-2; experiment: SRB cytotoxicity screening assay (Melanoma)
[13] = system: UACC-257; experiment: SRB cytotoxicity screening assay (Melanoma)
[14] = system: UACC-62; experiment: SRB cytotoxicity screening assay (Melanoma)
[15] = system: U251; experiment: SRB cytotoxicity screening assay (CNS Cancer)
[16] = system: COLO 205; experiment: SRB cytotoxicity screening assay (Colon Cancer)
[17] = system: HCT-116; experiment: SRB cytotoxicity screening assay (Colon Cancer)
[18] = system: 786-0; experiment: SRB cytotoxicity screening assay (Renal Cancer)
[19] = system: A498; experiment: SRB cytotoxicity screening assay (Renal Cancer)
[20] = system: SN12C; experiment: SRB cytotoxicity screening assay (Renal Cancer)
[21] = system: EKVX; experiment: SRB cytotoxicity screening assay (Non-Small Cell Lung Cancer)
[22] = system: HOP-62; experiment: as above
[23] = system: NCI-H226; experiment: as above
[24] = system: NCI-H522; experiment: as above
[25] = system: cell line panel (60 lines, nine disease-related subpanels); experiment: SRB cytotoxicity screening assay, whole cell line panel (mean values)
[26] = read-out: Log10 GI50 (converted)
[27] = read-out: Log10 LC50 (converted)
[28] = mean value over the cell line panel

For `CCCCCC(=O)O[C@H]1C[C@H]2OC[C@@]2(OC(C)=O)[C@H]2[C@H](OC(=O)c3ccccc3)[C@]3(O)C[C@H](OC(=O)[C@H](O)[C@@H](NC(=O)c4ccccc4)c4ccccc4)C(C)=C([C@@H](OC(C)=O)C(=O)[C@]12C)C3(C)C` [7-hexanoyltaxol], the “G2/M arrest MED” value [1] was 0.10 µg/mL, the “Log10 TGI” value [2] was <−8.00 molar and the GI50 [3, 26] was < 0.01 µM. The CC50 [3, 27] was > 100 µM, the CC50 [4] was 57.5 µM and the GI50 ([5]; Homo sapiens, IGROV-1, 48 h, read-out: Log10 GI50 (converted)) was < 0.01 µM. The CC50 ([5]; Homo sapiens, IGROV-1, 48 h, read-out: Log10 LC50 (converted)) was > 100 µM, the “Log10 TGI” value ([5]; IGR-OV1 (Ovarian), PG=0, 48 hour incubation) was −4.52 molar and the GI50 ([6]; Homo sapiens, OVCAR-4, 48 h, read-out: Log10 GI50 (converted)) was 1.58 µM. For the same compound, the CC50 ([6]; Homo sapiens, OVCAR-4, 48 h, read-out: Log10 LC50 (converted)) was > 100 µM, the “Log10 TGI” value ([6]; OVCAR-4 (Ovarian), PG=0, 48 hour incubation) was −4.21 molar and the GI50 ([7]; Homo sapiens, OVCAR-5, 48 h, read-out: Log10 GI50 (converted)) was < 0.01 µM. The CC50 ([7]; Homo sapiens, OVCAR-5, 48 h, read-out: Log10 LC50 (converted)) was 33.9 µM, the “Log10 TGI” value ([7]; OVCAR-5 (Ovarian), PG=0, 48 hour incubation) was −5.47 molar and the GI50 ([8]; 48 h, read-out: Log10 GI50 (converted)) was < 0.01 µM. For the same compound, the CC50 ([8]; 48 h, read-out: Log10 LC50 (converted)) was 85.1 µM, the “Log10 TGI” value ([8]; OVCAR-6 (Ovarian), PG=0, 48 hour incubation) was −4.88 molar and the GI50 ([9]; Homo sapiens, K562, 48 h, read-out: Log10 GI50 (converted)) was < 0.01 µM. For the same compound, the CC50 ([9]; Homo sapiens, K562, 48 h, read-out: Log10 LC50 (converted)) was > 100 µM, the “Log10 TGI” value ([9]; K-562 (Leukemia), PG=0, 48 hour incubation) was −7.05 molar and the GI50 [10, 26] was < 0.01 µM. The CC50 [10, 27] was > 100 µM, the GI50 ([11]; Homo sapiens, M14, 48 h, read-out: Log10 GI50 (converted)) was < 0.01 µM and the CC50 ([11]; Homo sapiens, M14, 48 h, read-out: Log10 LC50 (converted)) was 1.58 µM. The “Log10 TGI” value ([11]; M14 (Melanoma), PG=0, 48 hour incubation) was −7.94 molar, the GI50 ([12]; Homo sapiens, SK-MEL-2, 48 h, read-out: Log10 GI50 (converted)) was 0.0933 µM and the CC50 ([12]; Homo sapiens, SK-MEL-2, 48 h, read-out: Log10 LC50 (converted)) was > 100 µM. For the same compound, the “Log10 TGI” value ([12]; SK-MEL-2 (Melanoma), PG=0, 48 hour incubation) was −4.56 molar, the CC50 ([13]; Homo sapiens, UACC-257, 48 h, read-out: Log10 LC50 (converted)) was > 100 µM and the “Log10 TGI” value ([13]; UACC-257 (Melanoma), PG=0, 48 hour incubation) was −4.00 molar. The GI50 ([14]; Homo sapiens, UACC-62, 48 h, read-out: Log10 GI50 (converted)) was < 0.01 µM, the CC50 ([14]; Homo sapiens, UACC-62, 48 h, read-out: Log10 LC50 (converted)) was > 100 µM and the “Log10 TGI” value ([14]; UACC-62 (Melanoma), PG=0, 48 hour incubation) was −4.78 molar. For the same compound, the GI50 ([15]; Homo sapiens, U-251, 48 h, read-out: Log10 GI50 (converted)) was < 0.01 µM, the CC50 ([15]; Homo sapiens, U-251, 48 h, read-out: Log10 LC50 (converted)) was 32.4 µM and the “Log10 TGI” value ([15]; U251 (CNS Cancer), PG=0, 48 hour incubation) was −4.98 molar. The “Log10 TGI” value ([16]; COLO 205 (Colon Cancer), PG=0, 48 hour incubation) was −7.38 molar, the GI50 ([16]; Homo sapiens, COLO 205, 48 h, read-out: Log10 GI50 (converted)) was < 0.01 µM and the CC50 ([16]; Homo sapiens, COLO 205, 48 h, read-out: Log10 LC50 (converted)) was 26.3 µM. For the same compound, the “Log10 TGI” value ([17]; HCT-116 (Colon Cancer), PG=0, 48 hour incubation) was −4.94 molar, the GI50 ([17]; Homo sapiens, HCT-116, 48 h, read-out: Log10 GI50 (converted)) was < 0.01 µM and the CC50 ([17]; Homo sapiens, HCT-116, 48 h, read-out: Log10 LC50 (converted)) was > 100 µM. For the same compound, the “Log10 TGI” value ([18]; 786-0 (Renal Cancer), PG=0, 48 hour incubation) was −4.88 molar, the GI50 ([18]; Homo sapiens, 786-0, 48 h, read-out: Log10 GI50 (converted)) was < 0.01 µM and the CC50 ([18]; Homo sapiens, 786-0, 48 h, read-out: Log10 LC50 (converted)) was 36.3 µM. The “Log10 TGI” value ([19]; A498 (Renal Cancer), PG=0, 48 hour incubation) was −7.29 molar, the GI50 ([19]; Homo sapiens, A498, 48 h, read-out: Log10 GI50 (converted)) was < 0.01 µM and the CC50 ([19]; Homo sapiens, A498, 48 h, read-out: Log10 LC50 (converted)) was > 100 µM. For the same compound, the GI50 ([20]; Homo sapiens, SN12C, 48 h, read-out: Log10 GI50 (converted)) was < 0.01 µM, the CC50 ([20]; Homo sapiens, SN12C, 48 h, read-out: Log10 LC50 (converted)) was > 100 µM and the “Log10 TGI” value ([20]; SN12C (Renal Cancer), PG=0, 48 hour incubation) was >−4.00 molar. For the same compound, the “Log10 TGI” value ([21]; EKVX (Non-Small Cell Lung Cancer), PG=0, 48 hour incubation) was −4.29 molar, the GI50 ([21]; Homo sapiens, EKVX, 48 h, read-out: Log10 GI50 (converted)) was 0.398 µM and the CC50 ([21]; Homo sapiens, EKVX, 48 h, read-out: Log10 LC50 (converted)) was > 100 µM. For the same compound, the “Log10 TGI” value ([22]; HOP-62 (Non-Small Cell Lung Cancer), PG=0, 48 hour incubation) was −6.52 molar, the GI50 ([22]; Homo sapiens, HOP-62, 48 h, read-out: Log10 GI50 (converted)) was 0.0141 µM and the CC50 ([22]; Homo sapiens, HOP-62, 48 h, read-out: Log10 LC50 (converted)) was 89.1 µM. For the same compound, the GI50 ([23]; Homo sapiens, NCI-H226, 48 h, read-out: Log10 GI50 (converted)) was < 0.01 µM, the CC50 ([23]; Homo sapiens, NCI-H226, 48 h, read-out: Log10 LC50 (converted)) was > 100 µM and the “Log10 TGI” value ([23]; NCI-H226 (Non-Small Cell Lung Cancer), PG=0, 48 hour incubation) was −4.76 molar. For the same compound, the GI50 ([24]; Homo sapiens, NCI-H522, 48 h, read-out: Log10 GI50 (converted)) was < 0.01 µM, the CC50 ([24]; Homo sapiens, NCI-H522, 48 h, read-out: Log10 LC50 (converted)) was > 100 µM and the “Log10 TGI” value ([24]; NCI-H522 (Non-Small Cell Lung Cancer), PG=0, 48 hour incubation) was −5.91 molar. For the same compound, the “potency compared with paclitaxel” value ([25]; cancer cell line panel, Table I) was “in most instances is as potent and in some instances more potent than paclitaxel”, the “Log10 GI50, MG_MID” value [25, 28] was −7.79 molar and the “Log10 LC50, MG_MID” value [25, 28] was −4.32 molar. The “Log10 TGI, MG_MID” value [25, 28] was −5.59 molar.
